Data taken from patent publication US4568490A, “Aminopropylaminobleomycin derivatives and process for preparation thereof” (Zaidan Hojin Biseibutsu Kagaku Kenkyu Kai, priority 1981, dated 1986).

Assays:
ICR strain mice = experiment: Pulmonary toxicity (pulmonary fibrosis) in mice, intraperitoneal injection; type: in vivo; conditions: 5 mg/kg i.p. once a day for 10 days; for Grade of pulmonary fibrosis, % / Incidence of pulmonary fibrosis, % / Incidence: number of mice suffering from pulmonary fibrosis / Grade: total score of pulmonary fibrosis/total number of test animal: autopsy after 5 weeks; for Incidence: number of mice suffering from pulmonary fibrosis: affected/total mice; for Grade: total score of pulmonary fibrosis/total number of test animal: score 0-6 points; for Grade of pulmonary fibrosis, Ratio / Incidence of pulmonary fibrosis, Ratio: reference of the ratio not stated
Experimental: (3) Pulmonary toxicity (pulmonary fibrosis) in mice.
ICR strain mice (male; 15 weeks old; 9 mice per group) were used. Each mouse was administered with a daily dose of 5 mg/kg of the test sample by intraperitoneal injection, once a day, for 10 consecutive days. After completion of the predetermined administration, the mice were kept for 5 weeks under observation, then slaughtered, and autopsied to examine the incidence and grade of pulmonary fibrosis. The evaluation was made by comparing the number of administered mice suffering from pulmonary fibrosis and the grade of the disease.
In Tables 4A and 4B, the grade was numerically rated as follows:
1 point: Accumulation of exudate in pulmonary alveoli and fibrosis-like change in alveolar septum.
2 points: Fibrosis in several areas.
4 points: Scattered fibrosis.
6 points: Fibrosis in more than two-thirds of the total area.

[1] = test system: Mycobacterium smegmatis ATCC 607; experiment: Antimicrobial activity, agar plate-cylinder method; type: cell-based; conditions: Cu-free form; bleomycin A2 (Cu-free form) standard assumed 1,000 mcg/mg
Experimental: (§1) The activity was assayed against the above test microorganisms by the method of agar plate-cylinder, assuming the potency of bleomycin A2 (Cu-free form), used as standard, to be 1,000 mcg/mg.

Hela S3 cells = experiment: Growth inhibitory activity against Hela S3 cells; type: cell-based; conditions: Cu-free form; Hela S3, 3 days incubation with compound
Experimental: The percentage growth inhibition was calculated using the equation: […] wherein A is the ultimate number of cells on the third day from the addition of a test sample, B is the ultimate number of cells in the control (without the addition of test sample), and C is the number of cells on the day of addition of the test sample.

Bacillus subtilis = experiment: Antimicrobial activity, agar plate-cylinder method; type: cell-based; conditions: Cu-free form; bleomycin A2 (Cu-free form) standard assumed 1,000 mcg/mg
Experimental: (1) Antimicrobial activity against Mycobacterium smegmatis ATCC 697 and Bacillus subtilis.
as §1

SMILES	Grade of pulmonary fibrosis, % (ICR strain mice) [%]	Incidence of pulmonary fibrosis, % (ICR strain mice) [%]	Incidence: number of mice suffering from pulmonary fibrosis (ICR strain mice)	Grade: total score of pulmonary fibrosis/total number of test animal (ICR strain mice)	Grade of pulmonary fibrosis, Ratio (ICR strain mice)	Incidence of pulmonary fibrosis, Ratio (ICR strain mice)	Antimicrobial potency of Cu--free compound, against Mycobacterium smegmatis ATCC 607 [1] [mcg potency per mg]	50% growth inhibition concentration (ID50) of Cu--free compound against cultured Hela cell (Hela S3 cells) [µg/mL]	Antimicrobial potency of Cu--free compound, against Bacillus subtilis (Bacillus subtilis) [mcg potency per mg]
Cc1c(N)nc(C(CC(N)=O)NCC(N)C(N)=O)nc1C(=O)NC(C(=O)NC(C)C(O)C(C)C(=O)NC(C(=O)NCCc1nc(-c2nc(C(=O)NCCCN(C)CCCNCC3CCCCCCCCCCCC3)cs2)cs1)C(C)O)C(OC1OC(CO)C(O)C(O)C1OC1OC(CO)C(O)C(OC(N)=O)C1O)c1cnc[nH]1 (stereo not drawn) [compound 47, 3-{N--Methyl-N--[3'-(cyclotridecanylmethylamino)propyl]amino}propylaminoBLM]	0	0	0/9	0/27	0.00	0.00	3915	0.18	1760
Cc1c(N)nc(C(CC(N)=O)NCC(N)C(N)=O)nc1C(=O)NC(C(=O)NC(C)C(O)C(C)C(=O)NC(C(=O)NCCc1nc(-c2nc(C(=O)NCCCN3CCN(CCCNCc4ccc(Cl)cc4)CC3)cs2)cs1)C(C)O)C(OC1OC(CO)C(O)C(O)C1OC1OC(CO)C(O)C(OC(N)=O)C1O)c1cnc[nH]1 (stereo not drawn) [compound 44, 3-[4-(3-p-Chlorobenzylaminopropyl)piperazin-l-yl]propylaminoBLM]	0	0	0/9	0/27	0.00	0.00	11350	0.31	6080
Cc1c(N)nc(C(CC(N)=O)NCC(N)C(N)=O)nc1C(=O)NC(C(=O)NC(C)C(O)C(C)C(=O)NC(C(=O)NCCc1nc(-c2nc(C(=O)NCCCN(C)CCCN(Cc3ccc(OCc4ccc(OCc5ccccc5)cc4)cc3)Cc3ccc(OCc4ccc(OCc5ccccc5)cc4)cc3)cs2)cs1)C(C)O)C(OC1OC(CO)C(O)C(O)C1OC1OC(CO)C(O)C(OC(N)=O)C1O)c1cnc[nH]1 (stereo not drawn) [compound 51]	0	0	0/9	0/27	0.00	0.00	163	0.12	46
